Experimental data: ChEMBL document CHEMBL1201862, “PubChem BioAssay data set” (2004)
Active and inactive are the calls of the source. For most assays here, no stated cut-off is given here; in the data, actives have a measured IC50 and inactives only a lower limit.

Tests used:
Prothrombin = Prothrombin (Bos taurus, UniProt P00735); assay: thrombin protease inhibitors – biochemical, fluorescence polarization, uHTS hits, dose response (AID 602369); format: functional
[1] = molecular target: 72 kDa type IV collagenase (Homo sapiens, UniProt P08253); assay: Dose Response validation of uHTS RPN11 inhibitor hits using a MMP-2 Fluorescence assay.; format: functional
Sequence of 72 kDa type IV collagenase (P08253 whole entry): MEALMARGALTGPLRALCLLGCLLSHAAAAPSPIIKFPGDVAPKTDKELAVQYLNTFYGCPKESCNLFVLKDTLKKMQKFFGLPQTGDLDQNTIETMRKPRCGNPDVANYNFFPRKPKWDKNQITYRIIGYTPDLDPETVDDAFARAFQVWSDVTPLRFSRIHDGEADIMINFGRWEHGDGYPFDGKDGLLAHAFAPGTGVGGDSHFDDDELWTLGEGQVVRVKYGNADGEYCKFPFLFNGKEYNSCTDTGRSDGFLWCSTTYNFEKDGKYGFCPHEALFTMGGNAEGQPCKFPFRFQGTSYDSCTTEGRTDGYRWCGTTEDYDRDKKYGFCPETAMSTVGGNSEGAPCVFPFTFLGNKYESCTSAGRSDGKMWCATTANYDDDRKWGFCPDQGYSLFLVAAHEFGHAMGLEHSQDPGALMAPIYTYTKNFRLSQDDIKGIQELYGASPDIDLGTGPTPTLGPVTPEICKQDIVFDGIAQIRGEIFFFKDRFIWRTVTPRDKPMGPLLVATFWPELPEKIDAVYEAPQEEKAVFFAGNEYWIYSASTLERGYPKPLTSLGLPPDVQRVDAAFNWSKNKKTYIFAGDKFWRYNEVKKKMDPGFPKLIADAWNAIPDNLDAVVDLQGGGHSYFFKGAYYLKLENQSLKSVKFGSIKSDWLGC

[2] = molecular target: 26S proteasome non-ATPase regulatory subunit 14 (Homo sapiens, UniProt O00487); assay: inhibition of proteasome subunit RPN11 – biochemical, fluorescence polarization, uHTS hits, confirmation (AID 602368); format: functional
Sequence of 26S proteasome non-ATPase regulatory subunit 14 (O00487 whole entry): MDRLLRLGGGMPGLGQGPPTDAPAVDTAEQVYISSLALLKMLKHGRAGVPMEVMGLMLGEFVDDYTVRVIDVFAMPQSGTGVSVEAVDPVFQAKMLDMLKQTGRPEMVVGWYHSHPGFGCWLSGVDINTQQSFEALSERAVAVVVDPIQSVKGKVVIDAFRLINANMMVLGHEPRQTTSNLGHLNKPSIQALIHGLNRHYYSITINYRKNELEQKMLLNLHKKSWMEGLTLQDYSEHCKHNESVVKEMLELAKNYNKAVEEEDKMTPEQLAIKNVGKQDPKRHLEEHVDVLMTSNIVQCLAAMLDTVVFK

INS1 = assay: INS-1E survival protection against cytokine death – cell-based, luminescence, retest, dose response (AID 449756); format: functional; details: Rattus norvegicus;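 further: cell death triggered by IL-1 beta plus TNF-alpha plus IFN-gamma mixture; protective hits raise ATP signal compared with cytokine alone wells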
[3] = molecular target: T1, Tyrosyl-DNA phosphodiesterase 2 (Homo sapiens, UniProt O95551); assay: potency against TDP2 phosphodiesterase activity – biochemical, epi absorbance, IC50, dose response (AID 743297)
T1 sequence (O95551 whole entry): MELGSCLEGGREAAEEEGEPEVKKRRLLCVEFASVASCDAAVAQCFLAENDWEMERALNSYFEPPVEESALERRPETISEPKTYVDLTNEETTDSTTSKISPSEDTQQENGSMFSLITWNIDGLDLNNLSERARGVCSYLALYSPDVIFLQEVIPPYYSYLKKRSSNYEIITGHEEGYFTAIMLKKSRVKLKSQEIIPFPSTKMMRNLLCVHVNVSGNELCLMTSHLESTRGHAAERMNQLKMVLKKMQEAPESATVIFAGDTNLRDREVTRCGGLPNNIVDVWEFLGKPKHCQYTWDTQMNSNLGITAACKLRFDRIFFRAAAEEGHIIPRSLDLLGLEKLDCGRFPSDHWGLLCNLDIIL

[4] = molecular target: T2, Apoptotic protease-activating factor 1 (Homo sapiens, UniProt O14727); format: functional
T2 sequence (O14727 whole entry): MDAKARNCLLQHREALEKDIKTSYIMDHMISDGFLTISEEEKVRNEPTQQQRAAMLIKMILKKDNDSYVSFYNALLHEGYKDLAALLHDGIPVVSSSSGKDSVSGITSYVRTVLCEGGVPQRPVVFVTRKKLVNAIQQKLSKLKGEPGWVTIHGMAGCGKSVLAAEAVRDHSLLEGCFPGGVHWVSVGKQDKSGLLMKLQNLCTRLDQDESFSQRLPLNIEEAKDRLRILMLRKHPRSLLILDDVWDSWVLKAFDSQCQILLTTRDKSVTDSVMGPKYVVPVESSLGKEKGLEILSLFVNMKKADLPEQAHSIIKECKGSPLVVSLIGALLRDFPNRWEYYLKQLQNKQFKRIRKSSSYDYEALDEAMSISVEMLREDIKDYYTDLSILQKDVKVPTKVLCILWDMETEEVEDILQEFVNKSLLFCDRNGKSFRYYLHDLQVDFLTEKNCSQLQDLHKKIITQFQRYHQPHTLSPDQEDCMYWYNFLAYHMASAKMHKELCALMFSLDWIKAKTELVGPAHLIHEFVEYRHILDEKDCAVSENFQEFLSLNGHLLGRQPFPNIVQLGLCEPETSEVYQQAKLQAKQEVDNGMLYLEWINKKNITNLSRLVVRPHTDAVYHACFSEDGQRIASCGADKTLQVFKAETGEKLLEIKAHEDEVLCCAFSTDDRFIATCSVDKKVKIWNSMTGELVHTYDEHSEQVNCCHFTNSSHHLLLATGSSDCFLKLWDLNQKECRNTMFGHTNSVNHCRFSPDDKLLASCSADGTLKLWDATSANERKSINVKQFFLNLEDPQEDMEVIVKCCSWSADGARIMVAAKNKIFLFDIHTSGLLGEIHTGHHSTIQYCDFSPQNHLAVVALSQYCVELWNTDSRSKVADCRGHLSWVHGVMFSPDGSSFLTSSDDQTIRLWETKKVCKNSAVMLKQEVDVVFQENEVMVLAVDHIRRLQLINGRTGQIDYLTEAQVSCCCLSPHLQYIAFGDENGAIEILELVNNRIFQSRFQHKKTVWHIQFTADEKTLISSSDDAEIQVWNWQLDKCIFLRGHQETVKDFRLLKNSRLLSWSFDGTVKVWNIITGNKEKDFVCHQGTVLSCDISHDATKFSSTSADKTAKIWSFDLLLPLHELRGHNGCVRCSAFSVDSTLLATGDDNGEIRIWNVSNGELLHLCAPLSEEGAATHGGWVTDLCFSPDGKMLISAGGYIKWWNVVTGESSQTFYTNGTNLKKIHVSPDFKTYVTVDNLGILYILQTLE

Nonstructural protein 1 = Nonstructural protein 1 (Influenza A virus, UniProt Q194T2); format: functional, Influenza A virus (A/California/07/2009(H1N1))
Sequence of Nonstructural protein 1 (Q194T2 whole entry): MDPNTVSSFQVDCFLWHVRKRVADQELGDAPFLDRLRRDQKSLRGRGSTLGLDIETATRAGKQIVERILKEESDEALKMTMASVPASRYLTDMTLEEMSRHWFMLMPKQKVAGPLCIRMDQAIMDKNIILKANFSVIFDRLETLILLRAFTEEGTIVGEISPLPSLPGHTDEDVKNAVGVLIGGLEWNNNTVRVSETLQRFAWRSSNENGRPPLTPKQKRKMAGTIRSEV

Caspase-3 [5] = molecular target: T3, Caspase-3 (Homo sapiens, UniProt P42574); assay: SAR Analysis of small molecule inhibitors of Sentrin-specific proteases (SENPs) using a Caspase-3 Selectivity assay. [Related pubchem assays (depositor defined):AID2540, AID2599, AID434973, AID489001]; format: functional
T3 sequence (P42574 whole entry): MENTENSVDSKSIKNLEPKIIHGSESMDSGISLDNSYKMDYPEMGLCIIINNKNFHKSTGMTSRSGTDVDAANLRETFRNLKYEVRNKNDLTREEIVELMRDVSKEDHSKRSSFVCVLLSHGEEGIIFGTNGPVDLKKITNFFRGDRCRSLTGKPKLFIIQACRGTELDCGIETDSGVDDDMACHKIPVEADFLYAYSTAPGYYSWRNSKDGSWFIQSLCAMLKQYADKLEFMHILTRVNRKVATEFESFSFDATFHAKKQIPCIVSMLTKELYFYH

[6] = molecular target: T4, Sentrin-specific protease 7 (Homo sapiens, UniProt Q9BQF6); format: functional;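 further: Luminescence-based dose-response confirmation of ultra-high-throughput screening hits, measuring inhibition of SENP7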
T4 sequence (Q9BQF6 whole entry): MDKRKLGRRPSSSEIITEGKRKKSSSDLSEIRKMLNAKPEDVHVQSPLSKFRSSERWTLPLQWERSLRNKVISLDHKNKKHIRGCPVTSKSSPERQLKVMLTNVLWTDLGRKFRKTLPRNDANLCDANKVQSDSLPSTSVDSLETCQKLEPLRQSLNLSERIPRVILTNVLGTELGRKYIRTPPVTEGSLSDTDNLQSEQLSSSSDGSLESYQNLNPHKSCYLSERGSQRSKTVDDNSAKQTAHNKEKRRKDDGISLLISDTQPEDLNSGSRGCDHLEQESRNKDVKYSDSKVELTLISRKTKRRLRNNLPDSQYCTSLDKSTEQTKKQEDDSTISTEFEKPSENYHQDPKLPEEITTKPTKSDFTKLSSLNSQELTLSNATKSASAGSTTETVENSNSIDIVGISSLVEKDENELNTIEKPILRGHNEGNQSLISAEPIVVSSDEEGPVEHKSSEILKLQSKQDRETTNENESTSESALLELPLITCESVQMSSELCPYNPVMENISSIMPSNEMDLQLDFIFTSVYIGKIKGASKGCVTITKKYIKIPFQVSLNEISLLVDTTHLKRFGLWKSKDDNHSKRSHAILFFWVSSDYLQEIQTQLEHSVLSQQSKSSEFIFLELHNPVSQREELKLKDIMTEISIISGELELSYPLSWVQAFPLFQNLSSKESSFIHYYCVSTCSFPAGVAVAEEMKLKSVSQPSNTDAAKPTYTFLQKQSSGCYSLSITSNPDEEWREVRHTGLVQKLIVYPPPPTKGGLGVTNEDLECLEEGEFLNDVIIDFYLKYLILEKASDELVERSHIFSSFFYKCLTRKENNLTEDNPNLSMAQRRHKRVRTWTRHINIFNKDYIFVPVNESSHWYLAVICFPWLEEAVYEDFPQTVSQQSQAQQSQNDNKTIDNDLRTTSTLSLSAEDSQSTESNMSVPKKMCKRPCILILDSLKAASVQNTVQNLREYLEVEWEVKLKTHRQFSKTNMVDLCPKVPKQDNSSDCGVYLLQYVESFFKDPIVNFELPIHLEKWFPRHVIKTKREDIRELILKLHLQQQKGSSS

[7] = molecular target: T5, Sentrin-specific protease 8 (Homo sapiens, UniProt Q96LD8); assay: inhibition of human SENP8 cleavage activity – biochemical, luminescence, SAR follow-up (AID 504501); format: functional
T5 sequence (Q96LD8 whole entry): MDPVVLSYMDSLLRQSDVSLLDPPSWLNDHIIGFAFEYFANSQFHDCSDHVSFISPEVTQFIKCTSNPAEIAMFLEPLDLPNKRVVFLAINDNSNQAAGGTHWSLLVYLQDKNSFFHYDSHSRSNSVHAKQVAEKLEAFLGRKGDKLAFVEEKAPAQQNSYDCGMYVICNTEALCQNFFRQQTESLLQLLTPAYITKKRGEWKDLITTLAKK

[8] = molecular target: T6, Sentrin-specific protease 6 (Homo sapiens, UniProt Q9GZR1); format: functional
T6 sequence (Q9GZR1 whole entry): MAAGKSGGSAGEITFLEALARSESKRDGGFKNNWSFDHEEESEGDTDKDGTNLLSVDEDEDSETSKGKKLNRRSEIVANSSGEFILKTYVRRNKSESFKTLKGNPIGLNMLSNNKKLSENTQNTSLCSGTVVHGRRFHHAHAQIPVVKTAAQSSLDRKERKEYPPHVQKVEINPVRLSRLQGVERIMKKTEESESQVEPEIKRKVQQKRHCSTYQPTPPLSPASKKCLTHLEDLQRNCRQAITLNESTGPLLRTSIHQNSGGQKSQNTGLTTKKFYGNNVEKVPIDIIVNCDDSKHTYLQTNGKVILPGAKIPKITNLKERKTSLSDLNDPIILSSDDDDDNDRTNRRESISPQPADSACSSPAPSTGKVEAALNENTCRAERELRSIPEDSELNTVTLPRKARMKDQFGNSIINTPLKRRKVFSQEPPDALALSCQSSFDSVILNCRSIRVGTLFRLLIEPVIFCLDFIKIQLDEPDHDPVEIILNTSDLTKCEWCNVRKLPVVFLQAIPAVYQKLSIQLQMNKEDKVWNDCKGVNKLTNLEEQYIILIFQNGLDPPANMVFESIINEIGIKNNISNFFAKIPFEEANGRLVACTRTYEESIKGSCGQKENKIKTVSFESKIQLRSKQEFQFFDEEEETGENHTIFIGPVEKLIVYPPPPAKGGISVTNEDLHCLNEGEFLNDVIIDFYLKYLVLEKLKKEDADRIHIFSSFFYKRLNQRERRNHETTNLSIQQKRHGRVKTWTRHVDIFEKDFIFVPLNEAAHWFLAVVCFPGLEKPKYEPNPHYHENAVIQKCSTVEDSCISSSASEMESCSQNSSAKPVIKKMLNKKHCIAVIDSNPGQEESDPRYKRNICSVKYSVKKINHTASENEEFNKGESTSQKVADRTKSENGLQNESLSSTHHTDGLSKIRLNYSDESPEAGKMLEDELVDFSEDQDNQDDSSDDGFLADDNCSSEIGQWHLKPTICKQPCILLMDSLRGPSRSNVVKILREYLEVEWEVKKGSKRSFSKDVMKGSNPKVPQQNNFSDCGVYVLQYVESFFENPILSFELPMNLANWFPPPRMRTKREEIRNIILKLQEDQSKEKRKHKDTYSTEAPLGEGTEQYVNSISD

[9] = molecular target: T6, Sentrin-specific protease 6; assay: SAR Analysis of small molecule inhibitors of Sentrin-specific protease 6 (SENP6) using a Luminescent assay. [Related pubchem assays (depositor defined):AID2582, AID2599]; format: functional
[10] = molecular target: T4, Sentrin-specific protease 7; assay: inhibition of human SENP7 cleavage activity – biochemical, luminescence, SAR follow-up (AID 504497); format: functional
[11] = molecular target: T5, Sentrin-specific protease 8; format: functional
Caspase-3 [12] = molecular target: T3, Caspase-3; format: functional
[13] = molecular target: Induced myeloid leukemia cell differentiation protein Mcl-1 (Homo sapiens, UniProt Q07820); format: functional
Sequence of Induced myeloid leukemia cell differentiation protein Mcl-1 (Q07820 whole entry): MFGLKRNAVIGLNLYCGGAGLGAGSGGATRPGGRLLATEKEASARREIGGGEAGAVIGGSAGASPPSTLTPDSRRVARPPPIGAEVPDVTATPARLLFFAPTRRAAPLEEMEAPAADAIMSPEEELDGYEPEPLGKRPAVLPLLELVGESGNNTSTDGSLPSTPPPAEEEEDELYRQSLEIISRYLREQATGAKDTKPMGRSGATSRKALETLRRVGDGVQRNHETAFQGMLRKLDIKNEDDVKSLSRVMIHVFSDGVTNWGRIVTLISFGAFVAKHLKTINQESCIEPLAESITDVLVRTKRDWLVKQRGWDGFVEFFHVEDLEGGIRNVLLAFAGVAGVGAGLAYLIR

Vero = assay: viability of Vero cells under compound – cytotoxicity control for flavivirus capping enzyme inhibitors (AID 588742); format: functional; details: Chlorocebus sabaeus
[14] = molecular target: Glucose-6-phosphate 1-dehydrogenase (Homo sapiens, UniProt P11413); assay: inhibition of Homo sapiens G6PD, dose series – biochemical, fluorescence, selectivity assay for P. falciparum G6PD inhibitor project, dose response (AID 504792); format: functional
Sequence of Glucose-6-phosphate 1-dehydrogenase (P11413 whole entry): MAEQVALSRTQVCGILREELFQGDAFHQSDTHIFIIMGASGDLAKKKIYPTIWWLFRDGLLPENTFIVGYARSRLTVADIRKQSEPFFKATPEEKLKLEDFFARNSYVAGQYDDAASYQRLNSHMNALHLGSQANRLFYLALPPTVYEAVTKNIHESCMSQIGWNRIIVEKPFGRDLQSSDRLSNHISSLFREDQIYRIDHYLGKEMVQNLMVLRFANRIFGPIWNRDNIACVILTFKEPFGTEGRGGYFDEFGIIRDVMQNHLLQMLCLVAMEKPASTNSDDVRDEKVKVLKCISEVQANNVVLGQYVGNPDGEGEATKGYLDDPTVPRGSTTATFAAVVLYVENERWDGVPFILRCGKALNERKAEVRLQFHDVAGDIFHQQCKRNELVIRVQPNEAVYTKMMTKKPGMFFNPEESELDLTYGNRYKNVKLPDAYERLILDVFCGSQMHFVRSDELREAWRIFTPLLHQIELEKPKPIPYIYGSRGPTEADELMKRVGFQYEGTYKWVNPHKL

Genome polyprotein = Genome polyprotein (dengue virus type 2, UniProt P29990); assay: flavivirus cap methylation enzyme inhibition – biochemical, confirmation dose response, primary screen (AID 588689); format: functional
Sequence of Genome polyprotein (P29990 2492-3391 limits assumed): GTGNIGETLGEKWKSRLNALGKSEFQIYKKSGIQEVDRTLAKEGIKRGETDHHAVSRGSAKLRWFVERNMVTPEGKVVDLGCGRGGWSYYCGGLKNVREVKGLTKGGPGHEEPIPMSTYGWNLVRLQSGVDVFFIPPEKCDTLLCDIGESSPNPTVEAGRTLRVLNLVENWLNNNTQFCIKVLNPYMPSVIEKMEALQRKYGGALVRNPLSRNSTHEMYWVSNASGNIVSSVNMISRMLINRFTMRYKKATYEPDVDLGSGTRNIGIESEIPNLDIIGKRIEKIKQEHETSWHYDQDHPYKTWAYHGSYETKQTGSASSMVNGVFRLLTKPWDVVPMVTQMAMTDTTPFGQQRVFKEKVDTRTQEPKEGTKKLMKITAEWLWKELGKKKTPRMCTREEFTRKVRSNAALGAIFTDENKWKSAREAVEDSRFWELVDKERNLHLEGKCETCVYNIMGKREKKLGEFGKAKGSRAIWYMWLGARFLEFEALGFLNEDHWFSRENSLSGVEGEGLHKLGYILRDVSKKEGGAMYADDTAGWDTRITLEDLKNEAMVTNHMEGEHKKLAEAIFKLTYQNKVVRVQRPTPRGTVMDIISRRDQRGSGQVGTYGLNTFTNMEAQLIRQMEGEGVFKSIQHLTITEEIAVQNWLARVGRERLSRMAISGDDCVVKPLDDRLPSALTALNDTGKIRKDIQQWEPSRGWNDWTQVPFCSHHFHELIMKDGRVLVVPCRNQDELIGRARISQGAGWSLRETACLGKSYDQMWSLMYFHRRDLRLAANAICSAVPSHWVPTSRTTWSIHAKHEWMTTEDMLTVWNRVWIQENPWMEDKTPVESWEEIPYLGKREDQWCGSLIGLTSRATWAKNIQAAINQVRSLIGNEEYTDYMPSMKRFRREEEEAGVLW

[15] = molecular target: Hepatocyte nuclear factor 4-alpha (Homo sapiens, UniProt P41235); format: functional, cell-based;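 further: biochemical luminescence-based dose-response counterscreen measuring inhibition of HNF4 dimerization, run alongside a screen for blockers of ABHD5–perilipin-5 interaction; split luciferase complementation of HNF4 fusion proteins in cell lysate measuring dimerization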
Sequence of Hepatocyte nuclear factor 4-alpha (P41235 whole entry, the tested form may be a part): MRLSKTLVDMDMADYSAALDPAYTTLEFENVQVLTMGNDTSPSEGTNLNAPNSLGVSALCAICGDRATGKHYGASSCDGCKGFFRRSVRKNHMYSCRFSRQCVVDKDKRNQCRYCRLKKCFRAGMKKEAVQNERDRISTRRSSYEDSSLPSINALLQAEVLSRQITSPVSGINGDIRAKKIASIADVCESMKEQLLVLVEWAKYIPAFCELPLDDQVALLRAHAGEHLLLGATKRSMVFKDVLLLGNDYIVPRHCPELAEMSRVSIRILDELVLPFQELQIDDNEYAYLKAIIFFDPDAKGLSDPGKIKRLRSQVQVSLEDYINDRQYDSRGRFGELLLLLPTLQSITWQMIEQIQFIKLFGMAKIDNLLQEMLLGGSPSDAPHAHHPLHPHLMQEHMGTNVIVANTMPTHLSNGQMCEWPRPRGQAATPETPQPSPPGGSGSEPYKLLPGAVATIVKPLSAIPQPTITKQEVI

CC(/C=C1\SC(=S)N(CCC(=O)Nc2cccc(C(=O)O)c2)C1=O)=C\c1ccccc1
IC50 (Prothrombin): 73.5 µM (active) | IC50 [1]: 64.9 µM (active) | IC50 [2]: 47.4 µM (active)

Nc1ccc2nn(-c3cccc4ccccc34)nc2c1
AC50 (INS1): 12.6 µM (active) | IC50 [3]: > 128 µM (inactive) | IC50 [4]: 50 µM (active)

COc1ccccc1N1CCN(C(c2cccs2)C(C)NS(=O)(=O)c2ccccc2)CC1 (stereo not drawn)
IC50 [4]: 10 µM (active)

CCCC(=O)NC(c1cccs1)c1cc([N+](=O)[O-])c2cccnc2c1O (stereo not drawn)
IC50 (Prothrombin): 83.6 µM (active) | IC50 (Nonstructural protein 1): 13.1 µM (active) | IC50 [1]: 3.26 µM (active) | IC50 [2]: 89.3 µM (active)

O=C(Nc1nc2ccccc2s1)c1ccc(Cl)s1
IC50 (Caspase-3 [5]): 3.28 µM (active) | IC50 [6]: 2.16 µM (active) | IC50 [7]: 2.55 µM (active) | IC50 [8]: > 100 µM (inactive) | IC50 [9]: 2.83 µM (active) | IC50 [10]: 1.35 µM (active) | IC50 [11]: 1.56 µM (active) | IC50 (Caspase-3 [12]): 10.5 µM (active)

COc1cc(OC)cc(C(=O)Nc2ccc3ccccc3c2)c1
IC50 (Caspase-3 [5]): 8.7 µM (active) | IC50 [7]: 7.8 µM (active) | IC50 [9]: 7 µM (active) | IC50 [10]: 2.86 µM (active)

COc1cc(OC)cc(-c2noc(/C=C/c3ccccc3)n2)c1
IC50 (Caspase-3 [5]): 59 µM (active) | IC50 [7]: > 99 µM (inactive) | IC50 [9]: > 99 µM (inactive) | IC50 [10]: 21.4 µM (active)

Cc1cc(C)c(S(=O)(=O)/N=C2/C=C(SCC(=O)O)C(=O)c3ccccc32)cc1C
IC50 [13]: 7.55 µM (active) | CC50 (Vero): 37.5 µM (active) | IC50 [14]: 30.2 µM (inactive) | IC50 [4]: 12.6 µM (active) | IC50 (Genome polyprotein): > 100 µM (active)

O=C(NC1CCCCC1)C(C1CC1)n1c(=O)c(-c2ccco2)nc2ccccc21 (stereo not drawn)
IC50 [15]: 2.17 µM (active)
